# Test results published in US9885713B2, “Diagnosis and treatment of mycobacteria infections” (priority 2013, dated 2018).
# Columns and labels:
# Gp6 = biological target: T1, Gp6 (Mycobacterium phage L5, UniProt Q05278, L15P); assay: Direct ESI-MS assay of carbohydrate binding; set-up: species or system mycobacteriophage L5; details: for Association constants (Ka) for Gp6: 25° C., pH 7.2, direct ESI-MS assay
# T1 construct: pET-30a(+) vector-encoded N-terminal leader (additional residues up to the EcoRI site) (N); made in house; host or cells: E. coli BL21(DE3)
# Procedure: Chemically synthesized fragments of mycobacterial arabinans and phenolic glycolypids were used to test the carbohydrate binding ability of recombinant Gp6. Association constants (Ka) for Gp6 binding to carbohydrate ligands were measured using the direct electrospray ionization mass spectrometry (ESI-MS) assay. The assay is based on the direct detection and quantification of the abundance of ligand-bound and unbound protein ions in the gas phase. All binding measurements were carried out at 25° C. and pH 7.2 using a 9.4T ApexQe FTICR mass spectrometer (Bruker, Billerica, Mass.). ESI was performed in aqueous ammonium acetate (100 mM) solutions prepared from stock solutions of protein and oligosaccharide. The single chain variable fragment (scFv) of the monoclonal antibody Se155-4 was used as reference protein to distinguish specific from nonspecific ligand binding with the protein during the ESI-MS measurements.
# [1] = test system: Mycobacterium avium subsp. paratuberculosis ATCC 19851; assay: Cell binding assay: protein immobilized on gold surface, capture by SEM and fluorescence microscopy; details: protein immobilized on gold surface, 20 μg/ml (Gp6 also 40 μg/ml)
# From the text: (§1) In order to assess mycophage and mycophage RBPs for their use as probes of MAP infection, Gp-10 and Gp-6 were immobilized using an established protocol (Singh et. al. Biosens. Bioelect. 26 131 (2010) and used for the specific bacterial capture. Gold Surfaces were modified by cysteamine hydrochloride followed by activation using 2% gluteraldehyde. The recombinant proteins Gp-10, Gp-6 and Gp-31 were immobilized over the surfaces in order to capture the host bacteria Mycobacterium avium subsp. paratuberculosis ATCC 19851 and Mycobacterium smegmatis mc^2155. Bacterial capture was confirmed by fluorescence microscopy and Scanning Electron Microscopy (SEM). Nonspecific attachment was prevented by using bovine serum albumin (BSA) as the blocking layer. A negative control was run in parallel where a similar gold surface was treated with all reagents, but they were not exposed to the recombinant phage proteins.
# (§2) Proteins were immobilized onto cysteamine covered gold surfaces that were activated with glutaraldehyde according to the previously described protocol where RBP samples were used instead of whole phage particles. Briefly, the gold substrates were fabricated using piranha cleaned silicon substrates by sputtering a 25 nm thick gold layer. The gold substrates were sonicated in acetone, isopropanol, ethanol and MilliQ (Millipore) water for 5 min each prior to their use (Branson Ultrasonics 1510, 40 kHz frequency). The gold substrates were incubated overnight at 40° C. in a 50 mM solution of cysteamine hydrochloride (Sigma-Aldrich). The cysteamine self assembled monolayer (SAM) substrates were modified by 2% glutaraldehyde (Sigma-Aldrich) for 1 hr at room temperature and washed twice in PBS. These modified substrates were incubated in a 20 μg/ml solution of Gp10 (or Gp6) in PBS overnight at […]. The negative control substrate was incubated in PBS only. To block nonspecific binding of bacteria, the substrates were incubated in 1 mg/ml of bovine serum albumin (Sigma-Aldrich) and were washed twice in PBS. The protein covered substrates were exposed to 10^9 cfu/ml of mycobacterial cells in PBS for 1 hr at room temperature. The immobilized surfaces were washed in 0.05 Tween 20 (Sigma-Aldrich) before analysis. For fluorescence microscopy, the bacterial cells were stained with 50 μM resazurin (Sigma-Aldrich) for 20 min before exposure to the substrates covered with the immobilized proteins.
# (§3) Bacterial cell binding to the gold surface covered with the immobilized protein was assessed as described previously. Scanning electron microscopy (SEM) and fluorescent microscopy (FM) were used to estimate the number of bacterial cells bound to the surfaces. The samples were fixed with 2% glutaraldehyde for 2 hrs at room temperature followed by a gradient of ethanol from 50% to 100% before SEM. Finally the samples were dried by nitrogen gas. SEM imaging was performed using a Hitachi S-4800/LEO 1430 microscope. Cells were prestained using 50 μM of resazurin stain (Sigma-Aldrich) for the FM-based binding assay. An Olympus IX81 microscope equipped with a FITC filter and a Roper Scientific Cool-Snaps HQ CCD Camera were Used to Record the FM Images. ImageJ Software (USA NIH) was used to analyze the microscopy images. Average numbers of cells bound to the surface are indicated on the basis of the assessment of the cell number, fields of view, and using 8 gold covered chips per test.
# [2] = test system: Mycobacterium smegmatis mc^2155; assay: as above; details: protein immobilized on gold surface, 20 μg/ml
# From the text: as §1, §2, §3
# T1 sequence (Q05278 other isoform, or with tags, fused parts or gaps L15P): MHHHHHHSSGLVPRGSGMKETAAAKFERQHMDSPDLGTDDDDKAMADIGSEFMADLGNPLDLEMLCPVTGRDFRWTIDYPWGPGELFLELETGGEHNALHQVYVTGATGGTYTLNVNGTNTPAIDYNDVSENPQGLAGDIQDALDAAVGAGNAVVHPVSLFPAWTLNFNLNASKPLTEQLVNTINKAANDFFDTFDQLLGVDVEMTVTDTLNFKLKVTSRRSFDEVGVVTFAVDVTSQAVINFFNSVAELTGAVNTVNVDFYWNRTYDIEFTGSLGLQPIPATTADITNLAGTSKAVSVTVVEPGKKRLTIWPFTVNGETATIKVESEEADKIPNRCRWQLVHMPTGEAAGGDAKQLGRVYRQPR
Molecule,Kd (Gp6) [µM],also measured
"6-O-CH3-β-Glcp-(1→4)-2,3-di-O-CH3-α-Rhap-(1→2)-3-O-CH3-α-RhapOPMP [compound 14]",,Association constants (Ka) for Gp6 (Gp6): NB^3
"O=C(NCCCCCCCCO[C@H]1O[C@H](CO[C@H]2O[C@H](CO[C@H]3O[C@H](CO)[C@@H](O)[C@@H]3O[C@@H]3O[C@H](CO[C@H]4O[C@H](CO)[C@@H](O)[C@H](O)[C@@H]4O)[C@@H](O)[C@@H]3O)[C@@H](O)[C@@H]2O)[C@@H](O)[C@@H]1O)C(F)(F)F [compound 1, α-Manp-(1→5)-β-Araf-(1→2)-α-Araf-(1→5)-α-Araf-(1→5)-α-Araf-octyl-NHCOCF3]",256,
"O=C(NCCCCCCCCO[C@H]1O[C@H](CO[C@H]2O[C@H](CO[C@H]3O[C@H](CO)[C@@H](O)[C@@H]3O[C@@H]3O[C@H](CO[C@H]4O[C@H](CO)[C@@H](O)[C@H](O)[C@@H]4O[C@H]4O[C@H](CO)[C@@H](O)[C@H](O)[C@@H]4O)[C@@H](O)[C@@H]3O)[C@@H](O)[C@@H]2O)[C@@H](O)[C@@H]1O)C(F)(F)F [compound 2, α-Manp-(1→2)-α-Manp-(1→5)-β-Araf-(1→2)-α-Araf-(1→5)-α-Araf-(1→5)-α-Araf-octyl-NHCOCF3]",227,
"O=C(NCCCCCCCCO[C@H]1O[C@H](CO[C@H]2O[C@H](CO[C@H]3O[C@H](CO)[C@@H](O)[C@@H]3O[C@@H]3O[C@H](CO)[C@@H](O)[C@@H]3O)[C@@H](O[C@H]3O[C@H](CO)[C@@H](O)[C@@H]3O[C@@H]3O[C@H](CO)[C@@H](O)[C@@H]3O)[C@@H]2O)[C@@H](O)[C@@H]1O)C(F)(F)F [compound 3, β-Araf-(1→2)-α-Araf-(1→5)[β-Araf-(1→2)-α-Araf-(1→3)]-α-Araf-(1→5)-α-Araf-octyl-NHCOCF3]",278,
"O=C(NCCCCCCCCO[C@H]1O[C@H](CO[C@H]2O[C@H](CO[C@H]3O[C@H](CO)[C@@H](O)[C@@H]3O[C@@H]3O[C@H](CO)[C@@H](O)[C@@H]3O)[C@@H](O)[C@@H]2O)[C@@H](O)[C@@H]1O)C(F)(F)F [compound 4, β-Araf-(1→2)-α-Araf-(1→5)-α-Araf-(1→5)-α-Araf-octyl-NHCOCF3]",,Association constants (Ka) for Gp6 (Gp6): NB^3
"O=C(NCCCCCCCCO[C@H]1O[C@H](CO[C@H]2O[C@H](CO[C@H]3O[C@H](CO)[C@@H](O)[C@@H]3O)[C@@H](O)[C@@H]2O)[C@@H](O)[C@@H]1O)C(F)(F)F [compound 5, α-Araf-(1→5)-α-Araf-(1→5)-α-Araf-octyl-NHCOCF3]",132,
"O=C(NCCCCCCCCO[C@H]1O[C@H](CO[C@H]2O[C@H](CO[C@H]3O[C@H](CO)[C@@H](O)[C@@H]3O)[C@@H](O[C@H]3O[C@H](CO)[C@@H](O)[C@@H]3O)[C@@H]2O)[C@@H](O)[C@@H]1O)C(F)(F)F [compound 6, α-Araf-(1→5)-[α-Araf-(1→3)]-α-Araf-(1→5)-α-Araf-octyl-NHCOCF3]",417,
"O=C(NCCCCCCCCO[C@H]1O[C@H](CO[C@H]2O[C@H](CO)[C@@H](O[C@H]3O[C@H](CO)[C@@H](O)[C@@H]3O[C@@H]3O[C@H](CO)[C@@H](O)[C@@H]3O)[C@@H]2O)[C@@H](O)[C@@H]1O)C(F)(F)F [compound 7, β-Araf-(1→2)-α-Araf-(1→3)-α-Araf-(1→5)-α-Araf-octyl-NHCOCF3]",909,
"O=C(NCCCCCCCCO[C@H]1O[C@H](CO[C@H]2O[C@H](CO[C@H]3O[C@H](CO[C@H]4O[C@H](CO)[C@@H](O)[C@@H]4O)[C@@H](O)[C@@H]3O)[C@@H](O)[C@@H]2O)[C@@H](O)[C@@H]1O)C(F)(F)F [compound 8, α-Araf-(1→5)-α-Araf-(1→5)-α-Araf-(1→5)-a-Araf-octyl-NHCOCF3]",145,
"O=C(NCCCCCCCCO[C@H]1O[C@H](CO[C@H]2O[C@H](CO[C@H]3O[C@H](CO)[C@@H](O)[C@@H]3O[C@@H]3O[C@H](CO[C@H]4O[C@H](CO)[C@@H](O)[C@H](O)[C@@H]4O[C@H]4O[C@H](CO)[C@@H](O)[C@H](O)[C@@H]4O[C@H]4O[C@H](CO)[C@@H](O)[C@H](O)[C@@H]4O)[C@@H](O)[C@@H]3O)[C@@H](O)[C@@H]2O)[C@@H](O)[C@@H]1O)C(F)(F)F [compound 9, α-Manp-(1→2)-α-Manp-(1→2)-α-Manp-(1→5)-β-Araf-(1→2)-α-Araf-(1→5)-α-Araf-(1→5)-α-Araf-octyl-NHCOCF3]",385,
"COc1ccc(O[C@@H]2O[C@@H](C)[C@H](O)[C@@H](O[C@@H]3O[C@@H](C)[C@H](O)[C@@H](O[C@@H]4O[C@@H](C)[C@@H](OC)[C@@H](OC)[C@@H]4OC)[C@H]3O)[C@H]2OC)cc1 [compound 10, 2,3,4-tri-O-CH3-α-Fucp-(1→3)-α-Rhap(1→3)-2-O-CH3-α-RhapOPMP]",1000 ± 500,
"COc1ccc(O[C@@H]2O[C@@H](C)[C@H](O)[C@@H](O[C@@H]3O[C@@H](C)[C@H](O)[C@@H](O[C@@H]4O[C@@H](C)[C@@H](OC)[C@@H](O)[C@@H]4OC)[C@H]3O)[C@H]2O)cc1 [compound 11, 2,4-di-O-CH3-α-Fucp-(1→3)-α-Rhap(1→3)-α-Rhap-OPMP]",333,
"COc1ccc(O[C@@H]2O[C@@H](C)[C@H](O)[C@@H](O[C@@H]3O[C@@H](C)[C@H](O)[C@@H](O[C@@H]4O[C@@H](C)[C@@H](OC)[C@@H](OC)[C@@H]4OC)[C@H]3O)[C@H]2O)cc1 [compound 12, 2,3,4-tri-O-CH3-α-Fucp-(1→3)-α-Rhap(1→3)-α-RhapOpPMP]",286,
"COC[C@H]1O[C@@H](O[C@@H]2[C@@H](OC)[C@@H](OC)[C@H](O[C@H]3[C@H](Oc4ccc(OC)cc4)O[C@@H](C)[C@H](O)[C@H]3OC)O[C@H]2C)[C@H](O)[C@@H](OC)[C@@H]1O [compound 13, 3,6-di-O-CH3-β-Glcp-(1→4)-2,3-di-O-CH3-α-Rhap-(1→2)-3-O-CH3-α-RhapOPMP]",417,
"COc1ccc(OC2OC(C)C(O)C(OC3OC(C)C(O)C(O)C3O)C2OC)cc1 (stereo not drawn) [compound 15, α-Rhap-(1→3)-2-O-CH3-α-RhapOPMP]",,Association constants (Ka) for Gp6 (Gp6): NB^3
"Gp-31: recombinant His-tagged Gp-31 protein of mycobacteriophage L5 (SEQ ID NO: 5) (protein, His tag) MHHHHHHSSGLVPRGSGMKETAAAKFERQHMDSPDLGTDDDDKAMADIGSEFVTYPTNPLEAIGADGAFEIGGGDWSFGQDYTEQAIRALFTMPAVTMENALGLLEEHLLKLPLEALQGFKDMIPDWVEGAFDTVTGAVQAIMNALQDGPLFLKFAEFQLFLQRLLNNPAEVIGEIPQTLIDGLQDALNTVNNTIQTIVDMLLQALGITPEGELIDRIFDLSDEMEWLQTAASNAATGIQDTWNKFWGALTGRVPDQDQTVAEPAERIGELAGTTSANSSAIAELQRRLDNQQNAGGVAGGDDFERLNISGWDIRYSNGSSGRGYYRADGHQLVWMDEGNQQNTATFVRTNPADEKTATDYQKMTLVVGTISGEVQTVFPPQGGSHTRLWVRVNDNAPTVGITDGVFVEIGGVSKAQIGYRRNGNDTFVGSMVDCTWGAGSIFALTAGTANGAEKFEVSKNGPVLATWSDDGVVSAMGANYRRWGWEGQARNRNLGQGTPNSVTRVTITDNDPTGAGGGAVNVGGDVVGVLPIENGGTGASTASAARTALGIDDLVEDMSDVVRGSVEGLPLIPKIWVGTEAQYTALATKDQSTLYFRTA",,capture/binding of MAP cells (in words) [1]: no significant bacterial capture; capture/binding of M. smegmatis cells (in words) [2]: no significant bacterial capture
